Test [1] has as its target T1, recombinant BACE1 protein (Homo sapiens, UniProt P56817).
T1 construct: recombinant BACE1 protein in a final concentration of 0.04 μg/ml
Description: BACE1 biochemical FRET based assay. The settings on record: 450 min at room temperature; for IC50: pH 5.0, read-out: Biochemical FRET based assay pIC50 (converted). From the text:
(§1) This assay is a Fluorescence Resonance Energy Transfer Assay (FRET) based assay. The substrate for this assay is an APP derived 13 amino acids peptide that contains the ‘Swedish’ Lys-Met/Asn-Leu mutation of the amyloid precursor protein (APP) beta-secretase cleavage site. This substrate also contains two fluorophores: (7-methoxycoumarin-4-yl) acetic acid (Mca) is a fluorescent donor with excitation wavelength at 320 nm and emission at 405 nm and 2,4-Dinitrophenyl (Dnp) is a proprietary quencher acceptor. […] Upon cleavage by BACE1, the fluorophore Mca is separated from the quenching group Dnp, restoring the full fluorescence yield of the donor. The increase in fluorescence is linearly related to the rate of proteolysis.
Briefly in a 384-well format recombinant BACE1 protein in a final concentration of 0.04 μg/ml is incubated for 450 minutes at room temperature with 20 μM substrate in incubation buffer (50 mM Citrate buffer pH 5.0, 0.05% PEG) in the presence of compound or DMSO. Next the amount of proteolysis is directly measured by fluorescence measurement (excitation at 320 nm and emission at 405 nm) at different incubation times (0, 30, 60, 90, 120 and 450 min). For every experiment a time curve (every 30 min between 0 min and 120 min) is used to determine the time where we find the lowest basal signal of the high control. The signal at this time (Tx) is used to subtract from the signal at 450 min. Results are expressed in RFU, as difference between T450 and Tx.
(§2) A best-fit curve is fitted by a minimum sum of squares method to the plot of % Controlmin versus compound concentration. From this an IC50 value (inhibitory concentration causing 50% inhibition of activity) can be obtained.

In test [2] the test system is Abeta 1-42 produced and secreted by human neuroblastoma SKNBE2 cells expressing hAPP695. As to the kind of experiment: Cellular αLisa assay in SKNBE2 cells, Abeta 1-42. The class given is cell-based. As to conditions: 18 hours incubation; for IC50: Homo sapiens, SKNBE2, 18 h, read-out: Cellular αLisa assay in SKNBE2 cells Abeta 42 pIC50 (converted). As for the experimental part: (§3) Cellular αLisa Assay in Sknbe2 Cells In two αLisa assays the levels of Abeta total and Abeta 1-42 produced and secreted into the medium of human neuroblastoma SKNBE2 cells are quantified. The assay is based on the human neuroblastoma SKNBE2 expressing the wild type Amyloid Precursor Protein (hAPP695). The compounds are diluted and added to these cells, incubated for 18 hours and then measurements of Abeta 1-42 and Abeta total are taken. Abeta total and Abeta 1-42 are measured by sandwich αLisa. αLisa is a sandwich assay using biotinylated antibody AbN/25 attached to streptavidin coated beads and antibody Ab4G8 or cAb42/26 conjugated acceptor beads for the detection of Abeta total and Abeta 1-42 respectively. In the presence of Abeta total or Abeta 1-42, the beads come into close proximity. The excitation of the donor beads provokes the release of singlet oxygen molecules that trigger a cascade of energy transfer in the acceptor beads, resulting in light emission. Light emission is measured after 1 hour incubation (excitation at […] and emission at 615 nm).
as §2

Test [3] addresses T2, recombinant BACE2 protein (Homo sapiens, UniProt Q9Y5Z0).
T2 construct: recombinant BACE2 protein in a final concentration of 0.4 μg/ml
T2 sequence (Q9Y5Z0 63-518): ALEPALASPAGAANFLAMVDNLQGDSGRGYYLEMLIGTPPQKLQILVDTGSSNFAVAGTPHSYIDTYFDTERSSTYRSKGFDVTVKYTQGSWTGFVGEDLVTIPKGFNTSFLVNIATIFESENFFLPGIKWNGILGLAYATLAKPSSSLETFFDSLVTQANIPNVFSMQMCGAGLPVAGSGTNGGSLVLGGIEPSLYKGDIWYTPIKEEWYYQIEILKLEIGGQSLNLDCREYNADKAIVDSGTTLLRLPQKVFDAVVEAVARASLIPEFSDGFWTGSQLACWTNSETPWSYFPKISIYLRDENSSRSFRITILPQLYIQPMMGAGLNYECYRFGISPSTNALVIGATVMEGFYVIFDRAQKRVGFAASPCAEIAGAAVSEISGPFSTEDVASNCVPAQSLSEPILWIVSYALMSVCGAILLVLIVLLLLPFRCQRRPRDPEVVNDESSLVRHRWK
Description: BACE2 biochemical FRET based assay. The settings on record: 450 min at room temperature; for IC50: pH 5.0, read-out: Biochemical FRET based assay pIC50 (converted).
Description: as §1, with “assay” for “assay is an APP derived 13 amino acids peptide that”, “the beta-secretase,” for “BACE1,”
Briefly in a 384-well format recombinant BACE2 protein in a final concentration of 0.4 μg/ml is incubated for 450 minutes at room temperature with […] substrate in incubation buffer (50 mM Citrate buffer pH 5.0, 0.05% PEG, no DMSO) in the absence or presence of compound. Next the amount of proteolysis is directly measured by fluorescence measurement at T=0 and T=450 (excitation at 320 nm and emission at 405 nm). Results are expressed in RFU (Relative Fluorescence Units), as difference between T450 and TO.
as §2

Another test addresses β-secretase I (BACE1) (Homo sapiens, UniProt P56817). Description: Automated (CyclOps) biochemical assay BACE1.
The target in the next test is T3, β-secretase II (BACE2) (Homo sapiens, UniProt Q9Y5Z0).
T3 sequence (Q9Y5Z0 63-518): T2 sequence (Q9Y5Z0 63-518)
Description: Automated (CyclOps) biochemical assay BACE2.

Test [4] concerns Abeta total produced and secreted by human neuroblastoma SKNBE2 cells expressing hAPP695. As to the kind of experiment: Cellular αLisa assay in SKNBE2 cells, Abeta total. In kind it is cell-based. As to conditions: 18 hours incubation, read-out: Cellular αLisa assay in SKNBE2 cells Abeta total pIC50 (converted). As for the experimental part:
as §3, §2

Consider 16 molecules from US20190389882A1, “INHIBITORS OF BETA SECRETASE” (Janssen Pharmaceutica NV, priority 2017, published 2019).

Molecules are shown by their SMILES.

Sequence of β-secretase I (BACE1) (P56817 46-501): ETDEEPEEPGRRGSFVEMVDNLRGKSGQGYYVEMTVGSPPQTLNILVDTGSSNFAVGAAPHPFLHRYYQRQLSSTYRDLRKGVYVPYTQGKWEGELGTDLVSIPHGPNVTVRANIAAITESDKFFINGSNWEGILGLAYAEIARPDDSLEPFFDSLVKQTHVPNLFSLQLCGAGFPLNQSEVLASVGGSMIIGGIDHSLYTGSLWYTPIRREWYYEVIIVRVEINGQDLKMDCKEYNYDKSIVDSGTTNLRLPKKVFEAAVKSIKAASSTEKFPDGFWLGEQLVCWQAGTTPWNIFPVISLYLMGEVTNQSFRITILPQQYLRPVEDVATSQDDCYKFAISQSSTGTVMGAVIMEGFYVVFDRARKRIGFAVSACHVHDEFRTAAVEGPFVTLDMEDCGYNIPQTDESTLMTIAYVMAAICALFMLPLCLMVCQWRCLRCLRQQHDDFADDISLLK
T1 sequence (P56817 46-501): as above

With `COc1ncc(C(=O)NC2CC2)c2c1C[C@]1(c3ccc(F)cc3F)N=C(N)SC[C@@H]1C2` [Compound 1], the “Biochemical FRET based assay pIC50” value in test [1] (pH 5.0) was 7.12; in test [3] (pH 5.0) it was 6.77. Also, in test [2], the IC50 was 9.55 nM.

As for `COc1ncc(C(=O)N2CCOCC2)c2c1C[C@]1(c3ccc(F)cc3F)N=C(N)SC[C@@H]1C2` [Compound 2], the values for the IC50 in test [1], in test [2] and in test [3] were 219 nM, 47.9 nM and 1510 nM, respectively.

As to `COc1ncc(CNC(=O)c2cc(C)no2)c2c1C[C@]1(c3ccc(F)cc3F)N=C(N)SC[C@@H]1C2` [Compound 32a], the IC50 against β-secretase I (BACE1) is 63.1 nM; against β-secretase II (BACE2), 174 nM; in test [4], 95.5 nM; in test [1] it was 182 nM; in test [3], 589 nM. The “Cellular αLisa assay in SKNBE2 cells Abeta 42 pIC50” value (from here on “Cellular αLisa assay”) in test [2] stood at 7.07.

In the case of `COc1ncc(CNC(=O)c2cc(C)no2)c2c1C[C@]1(c3ccc(F)cc3F)N=C(N)SC[C@@H]1C2` [Compound 32], the IC50 in test [1] was 110 nM; in test [3], 309 nM. In test [2], the “Cellular αLisa assay” value stood at 7.41.

Consider `COc1ncc(CNC(=O)c2ccncc2)c2c1C[C@]1(c3ccc(F)cc3F)N=C(N)SC[C@@H]1C2` [Compound 30], for which the results for the IC50 in test [1] and in test [3] were 29.5 nM and 355 nM, respectively. Further, in test [2], the “Cellular αLisa assay” value was found to be 7.31.

For the molecule `COc1ncc(C(=O)Nc2cccnc2)c2c1C[C@]1(c3ccc(F)cc3F)N=C(N)SC[C@@H]1C2` [Compound 3], the IC50 in test [1] is 75.9 nM; in test [2], 56.2 nM; in test [3] it was 282 nM.

With `COc1ncc(CNC(=O)c2nccnc2Cl)c2c1C[C@]1(c3ccc(F)cc3F)N=C(N)SC[C@@H]1C2` [Compound 48], the IC50 against β-secretase I (BACE1) was 12.2 nM; on β-secretase II (BACE2), 72.4 nM; in test [1], 21.9 nM; in test [2] it was 16.6 nM; in test [3], 200 nM.

In the case of `COc1ncc(CNC(=O)C2CC2)c2c1C[C@]1(c3ccc(F)cc3F)N=C(N)SC[C@@H]1C2` [Compound 31], the results for the IC50 in test [1], in test [2] and in test [3] were 81.3 nM, 33.1 nM and 105 nM, respectively.

As for `COc1ncc(C(=O)NC2CC2)c2c1C[C@]1(c3ccc(F)cc3F)N=C(N)SC[C@@H]1C2` [Compound 1a], the IC50 was 39.8 nM at β-secretase I (BACE1); 72.4 nM against β-secretase II (BACE2); 22.9 nM in test [4]; 66.1 nM in test [1]; 19.1 nM in test [2]; 166 nM in test [3].

Regarding `COc1ncc(C(=O)N2CCC(C#N)CC2)c2c1C[C@]1(c3ccc(F)cc3F)N=C(N)SC[C@@H]1C2` [Compound 22], the IC50 against β-secretase I (BACE1) is 34.7 nM; on β-secretase II (BACE2) it was 355 nM; in test [1] it was 129 nM; in test [2], 85.1 nM; in test [3], 1100 nM.

Consider `COc1ncc(C(=O)N2CCOCC2)c2c1CC1(c3ccc(F)cc3F)N=C(N)SCC1C2` (centres unmarked) [Compound 2a], for which the IC50 against β-secretase I (BACE1) was 57.5 nM; against β-secretase II (BACE2) it was 324 nM; in test [4], 50.1 nM; in test [1], 240 nM; in test [2] it was 46.8 nM; in test [3] it was 1450 nM.

As for `COc1ncc(C(=O)N2CCC(c3ccncc3)C2)c2c1C[C@]1(c3ccc(F)cc3F)N=C(N)SC[C@@H]1C2` (some centres unmarked) [Compound 28], the IC50 in test [1] was 20.4 nM; in test [2], 28.8 nM; in test [3], 977 nM.

For `COc1ncc(C(=O)N2CCC(C#N)C2)c2c1C[C@]1(c3ccc(F)cc3F)N=C(N)SC[C@@H]1C2` (some centres unmarked) [Compound 6], the IC50 at β-secretase I (BACE1) was 56.2 nM; on β-secretase II (BACE2) it was 282 nM.

Take `COc1ncc(CNC(=O)c2cccnc2)c2c1C[C@]1(c3ccc(F)cc3F)N=C(N)SC[C@@H]1C2` [Compound 45]: the IC50 against β-secretase I (BACE1) was 8.51 nM; against β-secretase II (BACE2) it was 29.5 nM.

As for `COc1ncc(CNC(=O)C2CC2)c2c1C[C@]1(c3ccc(F)cc3F)N=C(N)SC[C@@H]1C2` [Compound 31a], the IC50 was 70.8 nM against β-secretase I (BACE1); 87.1 nM against β-secretase II (BACE2); 43.7 nM in test [4]; 112 nM in test [1]; 126 nM in test [3]. Further, the “Cellular αLisa assay” value in test [2] is reported as 7.39.

Regarding `COc1ncc(CNC(=O)c2ccncc2)c2c1C[C@]1(c3ccc(F)cc3F)N=C(N)SC[C@@H]1C2` [Compound 30a], the IC50 was 41.7 nM against β-secretase I (BACE1); 468 nM on β-secretase II (BACE2); 81.3 nM in test [4]; 66.1 nM in test [1]; 692 nM in test [3]. Also, in test [2], the “Cellular αLisa assay” value was 7.
